Experimental data taken from patent US20180194762A1 (Pharmacyclics LLC, priority 2017, published 2018).

Tests used:
Type in all cases: biochemical
[1] = target: T1, Btk (Homo sapiens, UniProt Q06187); test: Btk in vitro inhibitory activity (one of Method A TR-FRET, Method B electrophoretic mobility shift, Method C radiometric filter binding); details: wild-type Btk; read-out: Btk-WT IC50
T1 construct: purified from insect cells as a full-length construct containing a N-terminal 6X-His tag; His6 (N); made in house; host or cells: insect cells (Method C)
How it was run: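 Three alternative formats were used. A radiometric filter-binding read used 8 nM full-length His-BTK with 0.2 mg/mL poly(Glu-Tyr) 4:1 (C); microfluidic separation of 1 μM FAM-peptide by 1 nM BTK gave IC50 from 12-point curves (B); TR-FRET at Km ATP, 0.5 nM Btk, gave Ki(app)-derived IC50 (A).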

[2] = target: T2, panel of kinases (Homo sapiens, UniProt P51813); test: Inhibition of a panel of kinases (in vitro HotSpot kinase assay, 33P-ATP, 1 μM ATP), other kinases; details: BMX wild-type, read-out: BMX-WT IC50
T2 sequence (P51813 1-675): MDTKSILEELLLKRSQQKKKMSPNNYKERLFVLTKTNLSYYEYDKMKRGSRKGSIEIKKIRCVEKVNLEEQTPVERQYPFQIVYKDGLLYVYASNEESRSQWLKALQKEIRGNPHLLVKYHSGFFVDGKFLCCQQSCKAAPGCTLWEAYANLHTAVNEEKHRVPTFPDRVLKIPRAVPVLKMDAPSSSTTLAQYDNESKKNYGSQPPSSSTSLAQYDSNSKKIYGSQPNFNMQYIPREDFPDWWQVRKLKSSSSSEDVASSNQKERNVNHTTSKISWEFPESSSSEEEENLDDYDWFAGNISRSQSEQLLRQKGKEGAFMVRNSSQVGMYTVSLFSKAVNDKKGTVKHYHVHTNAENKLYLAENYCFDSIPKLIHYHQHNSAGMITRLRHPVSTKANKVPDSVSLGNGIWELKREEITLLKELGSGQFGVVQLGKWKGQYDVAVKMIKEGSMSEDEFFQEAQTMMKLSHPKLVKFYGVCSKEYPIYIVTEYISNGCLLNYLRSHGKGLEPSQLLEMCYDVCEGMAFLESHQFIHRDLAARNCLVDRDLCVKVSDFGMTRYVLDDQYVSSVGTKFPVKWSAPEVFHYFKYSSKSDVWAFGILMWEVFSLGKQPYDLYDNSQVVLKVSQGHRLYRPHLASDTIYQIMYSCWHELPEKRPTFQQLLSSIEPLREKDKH
How it was run: (§1)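 Radiometric read-out: 33P transfer to a suitable substrate by each purified enzyme, ATP at 1 μM. Values are degree of inhibition.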

[3] = target: T3, TEC (Homo sapiens, UniProt P42680); test: Inhibition of a panel of kinases (in vitro HotSpot kinase assay, 33P-ATP, 1 μM ATP); details: for IC50: HotSpot kinase assay, 1 μM ATP; for TEC/Btk: ratio of TEC IC50 to Btk IC50 (selectivity)
T3 sequence (P42680 1-631): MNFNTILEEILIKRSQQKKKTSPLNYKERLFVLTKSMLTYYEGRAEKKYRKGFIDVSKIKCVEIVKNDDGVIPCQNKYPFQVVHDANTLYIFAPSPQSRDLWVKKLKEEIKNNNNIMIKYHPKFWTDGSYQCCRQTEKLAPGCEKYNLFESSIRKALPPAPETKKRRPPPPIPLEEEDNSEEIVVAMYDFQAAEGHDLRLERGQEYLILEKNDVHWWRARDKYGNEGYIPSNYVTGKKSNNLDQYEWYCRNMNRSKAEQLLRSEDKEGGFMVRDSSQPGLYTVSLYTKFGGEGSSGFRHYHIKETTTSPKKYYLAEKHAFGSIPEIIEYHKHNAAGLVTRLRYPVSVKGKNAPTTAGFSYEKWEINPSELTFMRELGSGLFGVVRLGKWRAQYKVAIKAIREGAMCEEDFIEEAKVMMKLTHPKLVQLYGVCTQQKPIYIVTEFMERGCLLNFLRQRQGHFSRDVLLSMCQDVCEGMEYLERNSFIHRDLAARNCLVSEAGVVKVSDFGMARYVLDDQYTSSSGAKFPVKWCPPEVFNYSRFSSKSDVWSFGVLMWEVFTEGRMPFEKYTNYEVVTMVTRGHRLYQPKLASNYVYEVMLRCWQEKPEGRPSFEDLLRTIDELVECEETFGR
How it was run: as §1

T1 sequence (Q06187 whole entry): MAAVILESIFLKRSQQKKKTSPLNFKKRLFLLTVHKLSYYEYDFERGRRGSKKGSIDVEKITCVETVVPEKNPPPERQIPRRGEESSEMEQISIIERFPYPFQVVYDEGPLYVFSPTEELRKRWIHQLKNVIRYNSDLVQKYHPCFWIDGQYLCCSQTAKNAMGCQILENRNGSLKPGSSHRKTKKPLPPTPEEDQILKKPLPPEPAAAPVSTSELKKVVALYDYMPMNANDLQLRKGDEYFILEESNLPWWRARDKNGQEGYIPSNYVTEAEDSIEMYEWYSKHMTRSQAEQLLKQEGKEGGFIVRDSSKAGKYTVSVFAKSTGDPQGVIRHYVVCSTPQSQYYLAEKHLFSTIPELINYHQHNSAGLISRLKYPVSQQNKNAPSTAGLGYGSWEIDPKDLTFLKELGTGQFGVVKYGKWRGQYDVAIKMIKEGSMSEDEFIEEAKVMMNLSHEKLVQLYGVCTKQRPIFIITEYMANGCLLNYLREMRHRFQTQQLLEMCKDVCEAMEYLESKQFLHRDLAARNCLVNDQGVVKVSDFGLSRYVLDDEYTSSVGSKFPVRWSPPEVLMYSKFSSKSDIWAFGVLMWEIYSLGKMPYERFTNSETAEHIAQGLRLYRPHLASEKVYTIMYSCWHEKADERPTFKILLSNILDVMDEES

| Structure (SMILES) | IC50 [1] | IC50 [2] | IC50 [3] | TEC/Btk [3] |
| --- | --- | --- | --- | --- |
| C[C@@H](NC(=O)c1nc(C(C)(C)C)no1)c1ccc(-c2ccnc3[nH]nc(N4CCNCC4)c23)cc1 [Example 238, 3-tert-butyl-N-[(1R)-1-{4-[3-(piperazin-1-yl)-1H-pyrazolo[3,4-b]pyridin-4-yl]phenyl}ethyl]-1,2,4-oxadiazole-5-carboxamide] | 4.24 nM | 2670 nM | 4610 nM | 1087 |
| C[C@H]1CC[C@@H](Nc2n[nH]c3nccc(-c4ccc(CN5CCn6c(cc7c6CC(C)(C)C7)C5=O)c(F)c4)c23)CN1C(=O)N(C)C [Example 239, (2S,5R)-5-[(4-{4-[(7,7-dimethyl-1-oxo-1,3,4,6,7,8-hexahydro-2H-cyclopenta[4,5]pyrrolo[1,2-a]pyrazin-2-yl)methyl]-3-fluorophenyl}-1H-pyrazolo[3,4-b]pyridin-3-yl)amino]-N,N,2-trimethylpiperidine-1-carboxamide] | 10.1 nM | 3780 nM | 3880 nM | 384 |
| C[C@H]1CC[C@@H](Nc2n[nH]c3nccc(-c4ccc(CN5CCn6c(cc7c6CCCC7)C5=O)c(F)c4)c23)CN1C(=O)N(C)C [Example 240, (2S,5R)-5-[(4-{3-fluoro-4-[(1-oxo-3,4,6,7,8,9-hexahydropyrazino[1,2-a]indol-2(1H)-yl)methyl]phenyl}-1H-pyrazolo[3,4-b]pyridin-3-yl)amino]-N,N,2-trimethylpiperidine-1-carboxamide] | 5.5 nM | 387 nM | 5030 nM | 915 |
| CN1CCCN([C@@H]2CCN(c3n[nH]c4nccc(-c5ccc(CNC(=O)c6nc(C(C)(C)C)no6)c(F)c5)c34)C2)C1=O [Example 241, 3-tert-butyl-N-[(2-fluoro-4-{3-[(3R)-3-(3-methyl-2-oxo-1,3-diazinan-1-yl)pyrrolidin-1-yl]-1H-pyrazolo[3,4-b]pyridin-4-yl}phenyl)methyl]-1,2,4-oxadiazole-5-carboxamide] | 4.73 nM | 5010 nM | 5560 nM | 1175 |
| C[C@@H](NC(=O)c1nc(C(C)(C)C)no1)c1ccc(-c2ccnc3[nH]nc(C4=CCCN(C(=O)N(C)C)C4)c23)cc1 [Example 243, 5-[4-(4-{(1R)-1-[(3-tert-butyl-1,2,4-oxadiazole-5-carbonyl)amino]ethyl}phenyl)-1H-pyrazolo[3,4-b]pyridin-3-yl]-N,N-dimethyl-3,6-dihydropyridine-1(2H)-carboxamide] | 4.39 nM | 4450 nM | 5880 nM | 1339 |
| C[C@@H](NC(=O)c1nc(C(C)(C)C)no1)c1ccc(-c2ccnc3[nH]nc(C4CCN(C(=O)N(C)C)CC4)c23)cc1 [Example 244, 4-[4-(4-{(1R)-1-[(3-tert-butyl-1,2,4-oxadiazole-5-carbonyl)amino]ethyl}phenyl)-1H-pyrazolo[3,4-b]pyridin-3-yl]-N,N-dimethylpiperidine-1-carboxamide] | 1.63 nM | 5870 nM | 9550 nM | 5859 |
| CN1CCCN([C@@H]2CCN(c3n[nH]c4nccc(-c5ccc(CNC(=O)c6noc(C(C)(C)C)n6)c(F)c5)c34)C2)C1=O [Example 250, 5-tert-butyl-N-[(2-fluoro-4-{3-[(3R)-3-(3-methyl-2-oxo-1,3-diazinan-1-yl)pyrrolidin-1-yl]-1H-pyrazolo[3,4-b]pyridin-4-yl}phenyl)methyl]-1,2,4-oxadiazole-3-carboxamide] | 11.7 nM | 8370 nM | 6920 nM | 591 |
| CC(C)(C)c1nc(C(=O)NCc2ccc(-c3ccnc4[nH]nc(N5CCC[C@H](C(=O)O)C5)c34)cc2F)no1 [Example 252, (3S)-1-[4-(4-{[(5-tert-butyl-1,2,4-oxadiazole-3-carbonyl)amino]methyl}-3-fluorophenyl)-1H-pyrazolo[3,4-b]pyridin-3-yl]piperidine-3-carboxylic acid] | 0.511 nM | 529 nM | 386 nM | 755 |
| CC(C)(C)c1noc(C(=O)NCc2ccc(-c3ccnc4[nH]nc(C5CC5)c34)cc2F)n1 [Example 255, 3-tert-butyl-N-{[4-(3-cyclopropyl-1H-pyrazolo[3,4-b]pyridin-4-yl)-2-fluorophenyl]methyl}-1,2,4-oxadiazole-5-carboxamide] | 1.26 nM | 1360 nM | 1630 nM | 1294 |
| C[C@H]1CC[C@@H](Nc2n[nH]c3nccc(-c4ccc(CNC(=O)c5noc(C(C)(C)C)n5)cc4)c23)CN1C(=O)N(C)C [Example 256, (2S,5R)-5-{[4-(4-{[(5-tert-butyl-1,2,4-oxadiazole-3-carbonyl)amino]methyl}phenyl)-1H-pyrazolo[3,4-b]pyridin-3-yl]amino}-N,N,2-trimethylpiperidine-1-carboxamide] | 8.35 nM | 5440 nM | 3590 nM | 430 |
| CC(C)(C)c1nc(C(=O)NCc2ccc(-c3ccnc4[nH]nc(NC5CCCC5)c34)cc2F)no1 [Example 257, 5-tert-butyl-N-({4-[3-(cyclopentylamino)-1H-pyrazolo[3,4-b]pyridin-4-yl]-2-fluorophenyl}methyl)-1,2,4-oxadiazole-3-carboxamide] | 10.1 nM | 3960 nM | 5070 nM | 502 |
| C=CC(=O)N1CC[C@@H](Nc2n[nH]c3nccc(-c4cccc(NC(=O)c5ccc(C(C)(C)C)cc5)c4)c23)C1 [Example 263, 4-tert-butyl-N-[3-(3-{[(3R)-1-(prop-2-enoyl)pyrrolidin-3-yl]amino}-1H-pyrazolo[3,4-b]pyridin-4-yl)phenyl]benzamide] | 11.6 nM | 440 nM | 1070 nM | 092 |
| C=CC(=O)N1CC[C@@H](Nc2n[nH]c3nccc(-c4cccc(NC(=O)c5noc(C(C)(C)C)n5)c4)c23)C1 [Example 265, 5-tert-butyl-N-[3-(3-{[(3R)-1-(prop-2-enoyl)pyrrolidin-3-yl]amino}-1H-pyrazolo[3,4-b]pyridin-4-yl)phenyl]-1,2,4-oxadiazole-3-carboxamide] | 200 nM | 875 nM | 2780 nM | 014 |
| C=CC(=O)N1CC[C@@H](Nc2n[nH]c3nccc(-c4cccc(NC(=O)c5noc(C(C)(C)C)n5)c4C)c23)C1 [Example 267, 5-tert-butyl-N-[2-methyl-3-(3-{[(3R)-1-(prop-2-enoyl)pyrrolidin-3-yl]amino}-1H-pyrazolo[3,4-b]pyridin-4-yl)phenyl]-1,2,4-oxadiazole-3-carboxamide] | 164 nM | 553 nM | 901 nM | 005 |
| C=CC(=O)N1CCC[C@@H](Nc2n[nH]c3nccc(-c4ccc(C5(NC(=O)c6noc(C(C)(C)C)n6)CC5)cc4)c23)C1 [Example 270, 5-tert-butyl-N-{1-[4-(3-{[(3R)-1-(prop-2-enoyl)piperidin-3-yl]amino}-1H-pyrazolo[3,4-b]pyridin-4-yl)phenyl]cyclopropyl}-1,2,4-oxadiazole-3-carboxamide] | 0.792 nM | 312 nM | 613 nM | 774 |
| C=CC(=O)N1CC[C@@H](Oc2n[nH]c3nccc(-c4ccc(CNC(=O)c5noc(C(C)(C)C)n5)c(F)c4)c23)C1 [Example 272, 5-tert-butyl-N-{[2-fluoro-4-(3-{[(3R)-1-(prop-2-enoyl)pyrrolidin-3-yl]oxy}-1H-pyrazolo[3,4-b]pyridin-4-yl)phenyl]methyl}-1,2,4-oxadiazole-3-carboxamide] | 0.0732 nM | 39.2 nM | 18.9 nM | 258 |
